Test results published in patent US20260265703A1, “DEGRON FUSION PROTEINS AND METHODS OF PRODUCTION AND USE THEREOF” (BlueRock Therapeutics LP, priority 2023, published 2026).

Legend:
[1] = tested on: iPSC clone bi-allelically modified with a degron fused to GAPDH and IRES-GFP; assay: Incucyte live cells/well of a bi-allelically modified iPSC clone under POM; assay type: cell-based; conditions: 1 μM POM
Excerpt: The percentage of live cells/well was quantified at several timepoints using the Incucyte software and normalized for the number of live cells/well at the first image timepoint.

[2] = tested on: dopaminergic (DA) neurons differentiated from gene-edited iPSC clones (degron linked to GAPDH); assay: Annexin V Incucyte cell death of DA neurons differentiated from gene-edited iPSCs; assay type: cell-based
Method: (§1) In order to determine the applicability of the degron-comprising targeting constructs to differentiated cells, unedited parental iPSCs and gene-edited iPSC clones B and C were differentiated into dopaminergic (DA) neurons as depicted in FIG. 13. The differentiation protocol was adapted from Kriks et al., 2011, Nature 480 (7378): 547-551 and U.S. Pat. No. 10,711,243, which are hereby incorporated by reference in their entireties. Cell death was assessed post-thaw after cells were plated down in the presence and absence of various concentrations of POM. Annexin V dye was used to quantify cell death in an Incucyte imager over a period of 5 days.
(§2) Cells were differentiated from iPSCs into DA neurons using the same protocol as depicted in FIG. 13. DA neurons were plated and stained with Annexin V dye and cell death was measured using an Incucyte Imager over a period of 144 hours.

[3] = tested on: unedited parental cells (iPSCs); assay: Growth of unedited parental iPSCs under POM; assay type: cell-based; conditions: 0.5 μM POM for 5 days
Method: The same gene-edited iPSC clones in Example 4 were treated with 0.5 μM POM for 5 days to determine if there were any differences between the survival rates.

[4] = tested on: iPSCs transfected with degron or superdegron GAPDH targeting constructs; assay: Linker length: amplicon depletion after POM relative to untreated cells; assay type: cell-based; conditions: 3 μM POM; construct with 3 aa linker and degron
Excerpt: (§3) Two sets of targeting constructs were generated as described in Section 8.1. The first set of targeting constructs were designed to comprise a linker, a degron or superdegron sequence, an IRES sequence, and a GFP transgene sequence flanked by GAPDH homology arms as depicted in FIGS. 7G-7J, wherein the linker lengths were 3 aa (linker 1, GGS), 15 aa (linker 2, SEQ ID NO:23), 27 aa (linker 3, SEQ ID NO:103) and 10 aa (linker 4, SEQ ID NO:15). The second set of targeting constructs were designed to comprise a linker and a degron or superdegron sequence flanked by GAPDH homology arms as depicted in FIGS. 7A-7D. For both sets, the homology arms were designed to enable integration of the construct in the endogenous GAPDH locus, immediately 5′ of the GAPDH endogenous STOP codon. iPSCs were transfected with each construct individually.
Next, the iPSCs transfected with the second set of targeting constructs were evaluated, wherein amplicon depletion was assessed following POM treatment relative to untreated cells. […] Taken together, targeting construct linker length and degron type might be key factors to trigger cell death in gene-edited cells.

[5] = tested on: gene-edited iPSC clones (degron or superdegron linked to GAPDH); assay type: cell-based
[6] = tested on: iPSCs edited with a construct comprising a degron fused to GAPDH as well as GFP (GFP-positive); assay: Depletion of GFP-positive gene-edited iPSCs in a mixture with unedited cells after POM; assay type: cell-based; conditions: 3 μM POM for 6d; heterogenous mixture; FIG. 7G construct
Method: (§4) Functionality of the kill switch was tested in iPSCs using the targeting construct depicted in FIG. 7G, which comprises a linker, a degron sequence, an IRES, and a GFP transgene sequence flanked by GAPDH homology arms. On the day of Nucleofection, iPSCs were harvested and resuspended in Lonza P3 primary cell nucleofection buffer. Ribonucleoproteins (RNPs) were complexed with sgRNAs using 1:2 ratio of protein:sgRNA (IDT). Nucleofection of complexed RNP together with a targeting construct into resuspended iPSCs was accomplished using LONZA 4D Nucleofector. The Nucleofected cells were then plated and assessed for targeting events.
(§5) A heterogenous mixture of unedited cells (GFP-negative) and cells edited with a construct depicted in FIG. 7G, comprising a degron fused to GAPDH as well as GFP (GFP-positive) were treated with 3 μM pomalidomide (POM) for 6d or fed with complete medium without POM (untreated).

GAPDH expression = assay: qPCR of GAPDH expression in gene-edited iPSC clones; assay type: cell-based; conditions: 3 μM POM for up to 3 days; three degron clones and one superdegron clone
[7] = tested on: unedited cells (GFP-negative) iPSCs; assay: Effect of POM on unedited cells in the mixture with gene-edited iPSCs; assay type: cell-based; conditions: 3 μM POM for 6d; heterogenous mixture
Method: as §4, §5

[8] = tested on: DA neurons derived from unedited parental iPSCs; assay: Annexin V Incucyte cell death of DA neurons derived from unedited parental iPSCs; assay type: cell-based
Method: as §1, §2

[9] = tested on: myeloid progenitor (MP) cells differentiated from biallelically gene-edited iPSC clones A, B, and C; assay: AO/PI Incucyte cell death of myeloid progenitor cells differentiated from gene-edited iPSCs; assay type: cell-based; conditions: 1 μM POM, 108 hours
Excerpt: (§6) To expand the applicability of the degron-comprising constructs to additional differentiated cell types, unedited parental iPSCs and biallelically gene-edited iPSC clones A, B, and C comprising targeting construct as depicted in FIG. 7G were differentiated into myeloid progenitor (MP) cells as depicted in FIG. 17. The differentiation protocol was adapted from Douvaras et al., 2017 Jun. 6; 8 (6): 1516-1524 and PCT publication nos. WO 2023/150089 A1 and WO 2017/152081 A1, which are hereby incorporated by reference in their entireties. Cell death was assessed post-thaw after MP cells were plated down in the presence and absence of POM. Acridine Orange/Propidium Iodine (AO/PI) dye was used to quantify cell death in an Incucyte Imager over a period of 108 hours.

[10] = tested on: pool of iPSCs transfected with degron or superdegron GAPDH IRES-GFP targeting constructs; assay: Linker length: flow cytometry of GFP signal depletion in transfected iPSC pools; assay type: cell-based; conditions: 3 μM POM for 4 days
Excerpt: as §3
A pool of iPSCs transfected with the first set of targeting constructs, potentially comprising both mono-allelically and bi-allelically gene edited iPSCs, were evaluated using flow cytometry, wherein the depletion of GFP signal was assessed following treatment with 3 μM POM for 4 days. Among gene-edited iPSCs, those that were transfected with the superdegron-comprising targeting construct had the lowest percentage of GFP-positive cells, whereas approximately ⅓ to ½ of […] cells transfected with one of the degron-comprising targeting constructs were GFP-positive.

[11] = tested on: myeloid progenitor (MP) cells differentiated from unedited parental iPSCs; assay: AO/PI Incucyte cell death of myeloid progenitor cells from unedited parental iPSCs; assay type: cell-based; conditions: 1 μM POM; 108 hours
Excerpt: as §6

[12] = molecular target: degron-fused GAPDH protein (Homo sapiens, UniProt P04406+Q96SW2); conditions: one day treatment with 3 μM POM; degron and superdegron iPSC clones
Method: To determine whether gene-editing of iPSCs with a targeting construct, wherein the homology arms of which enable its integration in the endogenous GAPDH locus, affects the expression of GAPDH, three clones bi-allelically modified with a targeting construct comprising a 3 aa linker, GGS and a degron (as depicted in FIG. 7G) and one clone bi-allelically modified with superdegron-comprising targeting construct (as depicted in FIG. 7J) were treated with 3 μM POM for up to 3 days.

Chain of degron-fused GAPDH protein (P04406 other isoform, or with tags, fused parts or gaps): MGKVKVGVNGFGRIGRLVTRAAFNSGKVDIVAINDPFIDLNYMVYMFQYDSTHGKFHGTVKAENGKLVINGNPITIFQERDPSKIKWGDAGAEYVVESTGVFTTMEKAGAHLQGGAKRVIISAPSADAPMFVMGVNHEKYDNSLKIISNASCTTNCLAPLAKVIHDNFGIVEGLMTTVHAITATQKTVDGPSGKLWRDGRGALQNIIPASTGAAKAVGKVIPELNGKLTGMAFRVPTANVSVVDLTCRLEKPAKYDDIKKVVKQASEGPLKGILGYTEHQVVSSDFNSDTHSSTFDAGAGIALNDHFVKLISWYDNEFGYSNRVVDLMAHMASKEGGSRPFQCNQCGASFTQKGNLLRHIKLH
Chain of degron-fused GAPDH protein (Q96SW2 whole entry, the tested form may be a part): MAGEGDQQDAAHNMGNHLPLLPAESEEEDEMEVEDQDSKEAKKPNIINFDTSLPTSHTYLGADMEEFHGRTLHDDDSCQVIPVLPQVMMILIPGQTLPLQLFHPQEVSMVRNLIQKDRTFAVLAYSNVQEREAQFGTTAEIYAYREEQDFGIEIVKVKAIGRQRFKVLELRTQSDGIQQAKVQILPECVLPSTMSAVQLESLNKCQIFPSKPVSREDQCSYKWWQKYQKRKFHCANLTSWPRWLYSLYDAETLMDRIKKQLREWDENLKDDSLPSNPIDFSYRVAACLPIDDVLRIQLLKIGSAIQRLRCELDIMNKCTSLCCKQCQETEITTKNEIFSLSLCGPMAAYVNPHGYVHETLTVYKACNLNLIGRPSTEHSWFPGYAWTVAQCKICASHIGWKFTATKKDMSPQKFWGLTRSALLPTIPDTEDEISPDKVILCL
Chain of degron-fused GAPDH protein (Q16531 whole entry, further chain, the tested form may be a part): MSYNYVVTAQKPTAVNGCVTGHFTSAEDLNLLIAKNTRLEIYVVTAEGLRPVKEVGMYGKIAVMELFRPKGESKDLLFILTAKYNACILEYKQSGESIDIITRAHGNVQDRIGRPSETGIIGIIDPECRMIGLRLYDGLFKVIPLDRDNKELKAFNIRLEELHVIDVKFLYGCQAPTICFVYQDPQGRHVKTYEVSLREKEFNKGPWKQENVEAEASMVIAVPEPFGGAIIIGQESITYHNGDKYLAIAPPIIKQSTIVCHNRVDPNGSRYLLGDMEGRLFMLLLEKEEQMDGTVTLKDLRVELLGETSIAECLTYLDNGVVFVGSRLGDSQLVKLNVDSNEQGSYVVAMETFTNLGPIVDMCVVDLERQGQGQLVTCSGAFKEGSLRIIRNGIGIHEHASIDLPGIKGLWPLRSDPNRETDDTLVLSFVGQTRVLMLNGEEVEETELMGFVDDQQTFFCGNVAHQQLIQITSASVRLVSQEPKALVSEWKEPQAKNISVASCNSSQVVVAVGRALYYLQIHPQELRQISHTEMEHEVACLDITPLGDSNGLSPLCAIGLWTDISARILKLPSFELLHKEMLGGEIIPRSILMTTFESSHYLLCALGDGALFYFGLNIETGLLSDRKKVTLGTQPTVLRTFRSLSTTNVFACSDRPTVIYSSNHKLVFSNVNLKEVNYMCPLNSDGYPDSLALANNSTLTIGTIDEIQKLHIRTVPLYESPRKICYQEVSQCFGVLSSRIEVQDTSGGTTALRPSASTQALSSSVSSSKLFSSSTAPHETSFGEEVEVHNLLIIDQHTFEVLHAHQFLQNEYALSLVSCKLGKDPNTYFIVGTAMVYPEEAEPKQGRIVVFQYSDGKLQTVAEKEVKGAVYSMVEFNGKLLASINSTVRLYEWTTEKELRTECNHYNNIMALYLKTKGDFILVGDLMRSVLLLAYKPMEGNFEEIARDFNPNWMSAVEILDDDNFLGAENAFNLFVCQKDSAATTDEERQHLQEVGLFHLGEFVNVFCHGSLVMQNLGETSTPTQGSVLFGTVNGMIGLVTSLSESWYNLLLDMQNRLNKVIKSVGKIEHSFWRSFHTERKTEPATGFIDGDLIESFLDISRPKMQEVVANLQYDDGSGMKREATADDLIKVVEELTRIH

Nc1cccc2c1C(=O)N(C1CCC(=O)NC1=O)C2=O (stereo not shown) [POM, pomalidomide]
elimination of gene edited cells ([1]; 92 hours after addition): completely eliminated | time after addition of POM at which cell death rate surpassed proliferation rate ([1]; bi-allelic FIG. 7G clone, Incucyte): around 24 hours | POM concentration giving nearly complete cell death ([2]; Clone A or Clone C, by 144 hours, range 0.01 μM to 100 μM): 0.1 µM | POM concentration giving complete killing (lowest concentration evaluated) ([2]; DA neurons derived from clone B, 5-day treatment): 10 nM | death of neurons at all POM concentrations evaluated ([2]; clone B and clone C, by day 5, 0.13 μM-1 μM POM): complete death of all neurons | growth of unedited parental cells [3]: did not affect the growth of unedited parental cells | amplicon depletion relative to untreated cells [4]: associated with amplicon depletion | killing of gene-edited iPSCs ([5]; 0.5 μM POM for 5 days, degron and superdegron clones of Example 4): complete killing of all gene-edited iPSCs | POM concentration sufficient to achieve complete killing ([5]; degron construct, monitored 5 days, range 0.03125 μM to 10 μM): 0.5 µM | POM concentration able to trigger apoptosis ([5]; degron construct, monitored 5 days, range 0.03125 μM to 10 μM, data not shown): 0.25 µM | lowest POM concentration evaluated, associated with apoptosis of all cells ([5]; superdegron construct, monitored 5 days): 0.03125 µM | effect on the population of edited GFP-positive cells [6]: depleted the population of edited GFP-positive cells | GAPDH expression by qPCR, untreated vs POM-treated gene-edited cells (GAPDH expression): No large differences in GAPDH expression | effect on unedited cells [7]: did not affect unedited cells | cell death at any POM concentration tested ([8]; 0.01 μM to 100 μM POM, 144 hours): No differences in cell death | neuronal death with vs without POM ([8]; various POM concentrations, 5 days): No differences in neuronal death | cell death of gene-edited MP clones [9]: died in response to POM | depletion of GFP-positive cells ([10]; degron construct with the shortest linker (3 aa, GGS)): depleted GFP-positive cells | depletion of GFP-positive cells ([10]; degron constructs with 15 aa and 27 aa linkers (no depletion implied)): only if they were transfected with the degron-comprising targeting construct with the shortest linker or the superdegron-comprising targeting construct | depletion of GFP-positive cells ([10]; superdegron construct (10 aa linker)): depleted GFP-positive cells | cell death of unedited parental MP line [11]: no increase in cell death | GAPDH protein by western blot [12]: completely depleted
